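GI50 marks 50% less growth. TGI denotes the concentration required for complete inhibition of growth.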
Legend:
Experiment in all cases: growth of human tumour cells (NCI), 384-well format
786-0 renal = tested on: 786-0 renal
A498 renal = tested on: A498 renal
A549 NSCLC = tested on: A549 NSCLC
ACHN renal = tested on: ACHN renal
BT-549 breast = tested on: BT-549 breast
CAKI-1 renal = tested on: CAKI-1 renal
CCRF-CEM leukemia = tested on: CCRF-CEM leukemia
COLO 205 colon = tested on: COLO 205 colon
DU-145 prostate = tested on: DU-145 prostate
EKVX NSCLC = tested on: EKVX NSCLC
HCC-2998 colon = tested on: HCC-2998 colon
HCT-15 colon = tested on: HCT-15 colon
HL-60(TB) leukemia = tested on: HL-60(TB) leukemia
HOP-62 NSCLC = tested on: HOP-62 NSCLC
HOP-92 NSCLC = tested on: HOP-92 NSCLC
HS 578T breast = tested on: HS 578T breast
HT29 colon = tested on: HT29 colon
IGROV1 ovarian = tested on: IGROV1 ovarian
K-562 leukemia = tested on: K-562 leukemia
KM12 colon = tested on: KM12 colon
LOX IMVI melanoma = tested on: LOX IMVI melanoma
M14 melanoma = tested on: M14 melanoma
MALME-3M melanoma = tested on: MALME-3M melanoma
MCF7 breast = tested on: MCF7 breast
MDA-MB-231 breast = tested on: MDA-MB-231 breast
MDA-MB-435 melanoma = tested on: MDA-MB-435 melanoma
MDA-MB-468 breast = tested on: MDA-MB-468 breast
MOLT-4 leukemia = tested on: MOLT-4 leukemia
NCI-H226 lung = tested on: NCI-H226 lung
NCI-H23 lung = tested on: NCI-H23 lung
NCI-H322M lung = tested on: NCI-H322M lung
NCI-H460 NSCLC = tested on: NCI-H460 NSCLC
NCI-H522 lung = tested on: NCI-H522 lung
NCI/ADR-RES ovarian = tested on: NCI/ADR-RES ovarian
OVCAR-3 ovarian = tested on: OVCAR-3 ovarian
OVCAR-4 ovarian = tested on: OVCAR-4 ovarian
OVCAR-5 ovarian = tested on: OVCAR-5 ovarian
OVCAR-8 ovarian = tested on: OVCAR-8 ovarian
PC-3 prostate = tested on: PC-3 prostate
RPMI-8226 leukemia = tested on: RPMI-8226 leukemia
RXF 393 renal = tested on: RXF 393 renal
SF-268 CNS = tested on: SF-268 CNS
SF-295 CNS = tested on: SF-295 CNS
SF-539 CNS = tested on: SF-539 CNS
SK-MEL-28 melanoma = tested on: SK-MEL-28 melanoma
SK-MEL-5 melanoma = tested on: SK-MEL-5 melanoma
SK-OV-3 ovarian = tested on: SK-OV-3 ovarian
SN12C renal = tested on: SN12C renal
SNB-19 CNS = tested on: SNB-19 CNS
SNB-75 CNS = tested on: SNB-75 CNS
SR leukemia = tested on: SR leukemia
SW-620 colon = tested on: SW-620 colon
TK-10 renal = tested on: TK-10 renal
UACC-257 melanoma = tested on: UACC-257 melanoma
UACC-62 melanoma = tested on: UACC-62 melanoma
UO-31 renal = tested on: UO-31 renal

Compound: C[C@@H]1CCc2ncc(F)cc2[C@H]2CCCN2c2ccn3ncc(c3n2)C(=O)N1
- GI50 ([…]-0 renal): 23.6 µM
- TGI (786-0 renal): > 100 µM
- GI50 (A498 renal): 12.3 µM
- TGI (A498 renal): > 100 µM
- GI50 (A549 NSCLC): 61.9 µM
- TGI (A549 NSCLC): > 100 µM
- GI50 (ACHN renal): 28 µM
- TGI (ACHN renal): > 100 µM
- GI50 (BT-549 breast): 76.3 µM
- TGI (BT-549 breast): > 100 µM
- GI50 (CAKI-1 renal): 56.1 µM
- TGI (CAKI-1 renal): > 100 µM
- GI50 (CCRF-CEM leukemia): 8.73 µM
- TGI (CCRF-CEM leukemia): > 100 µM
- GI50 (COLO 205 colon): 64.9 µM
- TGI (COLO 205 colon): > 100 µM
- GI50 (DU-145 prostate): > 100 µM
- TGI (DU-145 prostate): > 100 µM
- GI50 (EKVX NSCLC): > 100 µM
- TGI (EKVX NSCLC): > 100 µM
- GI50 (HCC-2998 colon): > 100 µM
- TGI (HCC-2998 colon): > 100 µM
- GI50 (HCT-15 colon): > 100 µM
- TGI (HCT-15 colon): > 100 µM
- GI50 (HL-60(TB) leukemia): 63.1 µM
- TGI (HL-60(TB) leukemia): > 100 µM
- GI50 (HOP-62 NSCLC): 63.4 µM
- TGI (HOP-62 NSCLC): > 100 µM
- GI50 (HOP-92 NSCLC): 14.6 µM
- TGI (HOP-92 NSCLC): > 100 µM
- GI50 (HS 578T breast): 7.78 µM
- TGI (HS 578T breast): > 100 µM
- GI50 (HT29 colon): 75.5 µM
- TGI (HT29 colon): > 100 µM
- GI50 (IGROV1 ovarian): 30.9 µM
- TGI (IGROV1 ovarian): > 100 µM
- GI50 (K-562 leukemia): 7.4 µM
- TGI (K-562 leukemia): 49 µM
- TGI (KM12 colon): > 100 µM
- GI50 (LOX IMVI melanoma): > 100 µM
- TGI (LOX IMVI melanoma): > 100 µM
- GI50 (M14 melanoma): 28.8 µM
- TGI (M14 melanoma): > 100 µM
- GI50 (MALME-3M melanoma): 4.11 µM
- TGI (MALME-3M melanoma): > 100 µM
- GI50 (MCF7 breast): 18.5 µM
- TGI (MCF7 breast): > 100 µM
- GI50 (MDA-MB-231 breast): 18.1 µM
- TGI (MDA-MB-231 breast): > 100 µM
- GI50 (MDA-MB-435 melanoma): 57.2 µM
- TGI (MDA-MB-435 melanoma): > 100 µM
- GI50 (MDA-MB-468 breast): 17 µM
- TGI (MDA-MB-468 breast): 92 µM
- GI50 (MOLT-4 leukemia): 5.07 µM
- TGI (MOLT-4 leukemia): 20.4 µM
- GI50 (NCI-H226 lung): 5.37 µM
- TGI (NCI-H226 lung): > 100 µM
- GI50 (NCI-H23 lung): 93.8 µM
- TGI (NCI-H23 lung): > 100 µM
- GI50 (NCI-H322M lung): > 100 µM
- TGI (NCI-H322M lung): > 100 µM
- GI50 (NCI-H460 NSCLC): > 100 µM
- TGI (NCI-H460 NSCLC): > 100 µM
- GI50 (NCI-H522 lung): 16.2 µM
- TGI (NCI-H522 lung): > 100 µM
- GI50 (NCI/ADR-RES ovarian): > 100 µM
- TGI (NCI/ADR-RES ovarian): > 100 µM
- GI50 (OVCAR-3 ovarian): 48.4 µM
- TGI (OVCAR-3 ovarian): > 100 µM
- GI50 (OVCAR-4 ovarian): 10.3 µM
- TGI (OVCAR-4 ovarian): 96.2 µM
- GI50 (OVCAR-5 ovarian): 32.6 µM
- TGI (OVCAR-5 ovarian): > 100 µM
- GI50 (OVCAR-8 ovarian): > 100 µM
- TGI (OVCAR-8 ovarian): > 100 µM
- GI50 (PC-3 prostate): > 100 µM
- TGI (PC-3 prostate): > 100 µM
- GI50 (RPMI-8226 leukemia): 2.36 µM
- TGI (RPMI-8226 leukemia): > 100 µM
- GI50 (RXF 393 renal): 3.44 µM
- TGI (RXF 393 renal): > 100 µM
- GI50 (SF-268 CNS): 94.1 µM
- TGI (SF-268 CNS): > 100 µM
- GI50 (SF-295 CNS): 30.1 µM
- TGI (SF-295 CNS): > 100 µM
- GI50 (SF-539 CNS): 82.1 µM
- TGI (SF-539 CNS): > 100 µM
- GI50 (SK-MEL-28 melanoma): 70.2 µM
- TGI (SK-MEL-28 melanoma): > 100 µM
- GI50 (SK-MEL-5 melanoma): > 100 µM
- TGI (SK-MEL-5 melanoma): > 100 µM
- GI50 (SK-OV-3 ovarian): 65 µM
- TGI (SK-OV-3 ovarian): > 100 µM
- GI50 (SN12C renal): 20.8 µM
- TGI (SN12C renal): > 100 µM
- GI50 (SNB-19 CNS): > 100 µM
- TGI (SNB-19 CNS): > 100 µM
- GI50 (SNB-75 CNS): 25.4 µM
- TGI (SNB-75 CNS): > 100 µM
- GI50 (SR leukemia): 1.63 µM
- TGI (SR leukemia): 3.2 µM
- GI50 (SW-620 colon): > 100 µM
- TGI (SW-620 colon): > 100 µM
- GI50 (TK-10 renal): > 100 µM
- TGI (TK-10 renal): > 100 µM
- GI50 (UACC-257 melanoma): 63.3 µM
- TGI (UACC-257 melanoma): > 100 µM
- GI50 (UACC-62 melanoma): 97.9 µM
- TGI (UACC-62 melanoma): > 100 µM
- GI50 (UO-31 renal): > 100 µM
- TGI (UO-31 renal): > 100 µM

Source: PubChem BioAssay (NCI)
